“And” between values parts separate entries of the source, which are not always exact repeats. Identical values can stand only once.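 Grown in 96-well plates, cells were treated for 48 hours with each compound at five concentrations. Insufficient inhibition: endpoint recorded as highest concentration tested. The concentration for 50% growth inhibition is given as GI50. TGI: concentration producing complete growth inhibition.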 *1 amine or outer side, *2 acyl side, *3 side chain or, on linkers, in order; H or OH if unused. Where a SMILES comes first, the peptide text is derived from it. [ ]: non-standard residue; d: D form. X56 = CC[C@H](C)[C@H](OC(=O)[C@@H](C)[C@@H](CC)N[*:1])C(=O)[*:2]; X32 = C[C@H](N[*:1])C(=O)C(C)(C)C(=O)[*:2]; NMeY = CN[C@@H](Cc1ccc(O)cc1)C(=O)O; NMeL = CN[C@@H](CC(C)C)C(=O)O; NMeV = CN[C@H](C(=O)O)C(C)C
Legend:
Assay in all cases: growth of human tumour cells (NCI), 48 h
U251 CNS = test system: U251 CNS
HCC-2998 colon = test system: HCC-2998 colon
LOX IMVI melanoma = test system: LOX IMVI melanoma
HOP-18 NSCLC = test system: HOP-18 NSCLC
SW-620 colon = test system: SW-620 colon
SK-MEL-5 melanoma = test system: SK-MEL-5 melanoma
KM20L2 colon = test system: KM20L2 colon
HCT-116 colon = test system: HCT-116 colon
MDA-MB-231 breast = test system: MDA-MB-231 breast
NCI/ADR-RES ovarian = test system: NCI/ADR-RES ovarian

SMILES	TGI (U251 CNS)	TGI (HCC-2998 colon) [µM]	TGI (LOX IMVI melanoma) [µM]	TGI (HOP-18 NSCLC) [µM]	TGI (SW-620 colon) [µM]	TGI (SK-MEL-5 melanoma)	TGI (KM20L2 colon) [µM]	TGI (HCT-116 colon) [µM]	TGI (MDA-MB-231 breast) [µM]	TGI (NCI/ADR-RES ovarian) [µM]	GI50 (U251 CNS) [µM]	GI50 (LOX IMVI melanoma) [µM]	GI50 (HOP-18 NSCLC) [µM]	GI50 (SW-620 colon) [µM]	GI50 (SK-MEL-5 melanoma) [µM]	GI50 (KM20L2 colon) [µM]	GI50 (HCT-116 colon) [µM]	GI50 (HCC-2998 colon) [µM]
N#C/C(=C\c1ccc(C(O)P(=O)(O)O)cc1)C(N)=O (stereo unspecified)	> 100 µM	> 100	> 100	> 100	> 100	> 100 µM	> 100	> 100										
C=C1C(=O)OC2CC(C)C3C=CC(=O)C3CC12 (stereo unspecified)	20.6 µM	16.5	2.69	16.9	3.69	6.04 µM	12.8	2.7	3.74									
N#CC1C2CCC3(CC2CCN1C(=O)c1ccccc1)OCCO3 (stereo unspecified)	> 100 µM	> 100	> 100	> 100	> 100	> 100 µM	> 100	> 100										
CC1(O)CCC2(C#N)CCC1C2O (stereo unspecified)	> 100 µM	> 100	41.9	> 100		> 100 µM	> 100	> 100										
NS(=O)(=O)c1ccc(NC(=O)c2cccc3cc4ccccc4nc23)cc1	> 100 µM	> 100	> 97.3	> 100	> 100	> 100 µM	> 100	> 100	> 100	> 100								
COc1ccc(OC)c2c(=S)c3ccccc3[nH]c12	> 100 µM	> 100	> 100		> 100	70.1 µM	> 100	> 100	> 100	> 100								
CC(C)C(=O)/C=C/c1ccc(Cl)c(Cl)c1	30.7 µM	33.2		23.5	36.3	28.8 µM	37.8	15.2										
COC(=O)C1C(OCc2ccccc2)C2CCC1(OC)C=C2C (stereo unspecified)	> 100 µM	> 100	> 100	> 100	> 100	> 100 µM	> 100	> 100										
COc1cc2c(c(OC)c1OC)-c1ccc(OC)c(=O)cc1[C@@H](N(C)C=O)CC2	> 4.68 µM	> 100	> 100	> 100	> 100	0.0401 µM		6.83										
Cc1c(N=Cc2ccc(N(CCC#N)CCC#N)cc2)c(=O)n(-c2ccccc2)n1C	> 100 µM	> 100	> 100	> 100	> 100	> 100 µM	> 100	> 100	> 100	> 100								
C1=Nc2ccccc2C=Nc2ccccc2C=Nc2ccccc2C=Nc2ccccc21.[Cl-].[Pt+2]	27.5 µM		> 100	> 100	> 100	48.3 µM	58	> 100			10.5	29.9	22.3	27.6	18.8	21	25.9	
COc1ccc(-c2c(N)[n+]([O-])c3ccccc3[n+]2[O-])cc1OC	> 100 µM			> 100	> 100	> 100 µM	> 100	> 100										
Cc1ccc2c(c1)CNc1ccc(C)cc1CN2	> 100 µM		> 100	> 100	> 100	> 100 µM		> 100										
COc1cc2c(cn1)[nH]c1ccccc12	> 100 µM	> 100	> 100	> 100	> 100	> 100 µM	> 100	> 100										
CC/C=C/c1cc2cc[nH]c2c2c1C(C)C[C@@H]2C (stereo partly specified)	51.2 µM		31	73.7	94.8	46.4 µM		29.7										
CC[C@H](C)[C@@H]1OC(=O)[C@@H](C)[C@@H](CC)NC(=O)[C@H](C)NC(=O)C(C)(C)C(=O)[C@H](C)NC(=O)[C@H](Cc2ccc(OC)cc2)N(C)C(=O)[C@H](C(C)C)N(C)C(=O)CNC(=O)[C@H](CC(C)C)N(C)C(=O)CNC1=O (cyclo(A[X56]G[NMeL]G[NMeV][NMeY](Me)[X32]))	1.08 µM and 0.15 µM	3.94		0.0425	> 39.1	0.173 µM and 0.462 µM	16.7	11.3	0.792	9.92		0.0392		< 0.0316	0.135			
O=C(NCc1ccncc1)C1COc2cc(-c3cc(=O)c4ccccc4o3)ccc2O1 (stereo unspecified)	> 100 µM	> 100	> 100		> 100	> 100 µM	> 100	> 100										
CC(=O)/C=C/c1ccc(C)cc1	> 100 µM	> 100	> 100	> 100	> 100	> 100 µM	> 100	> 100										
CC(C)CN(CC(C)C)C(=O)C1CCCC[C@@H]1C(=O)O (stereo partly specified)	> 100 µM	> 100	> 100	> 100	> 100	> 100 µM	> 100	> 100										
c1ccc(COC2(OCc3ccccc3)CC3OC2C2NN=NC32)cc1 (stereo unspecified)	32.6 µM	> 10	36.5	92.9	33.6	32.3 µM	> 100											
Cc1c2c(cc3c(=O)ccn(CCN(C)C)c13)c(=O)ccn2CCN(C)C	23 µM	20.3	25.3	58.6	20.5	34.4 µM	20.8	19.5										
COc1cc(Nc2nc3ccc(C(F)(F)F)cc3nc2-c2ccccc2)cc(OC)c1OC	> 100 µM	25.9	15.5		> 100	59.4 µM	26											
O=C(/C=C/c1ccccc1Cl)c1ccc(Cl)cc1Cl	25.5 µM	33.1		31.2	3.36	28.6 µM	28.3	20.5										
O=C(c1ccc(Cl)cc1)c1ccc(OCCSCCCCCCCCCCSCCOc2ccc(C(=O)c3ccc(Cl)cc3)cc2)cc1	> 100 µM	> 100	> 100		> 100	> 100 µM	> 100											
N#CC1CC2(C(=O)C1=O)c1ccccc1-c1ccccc12 (stereo unspecified)	> 100 µM	> 100	> 100	> 100	> 100	> 100 µM	> 100	> 100										
C1COCCOCCOCCOCCO1.CC(=O)[CH-]C(C)=O.CC(=O)[CH-]C(C)=O.CC(=O)[CH-]C(C)=O.[V]	52.8 µM	40.1	29.6	77.9	> 100	12.8 µM	61.7	27.3			20.6	15.1	28.2	22.9	2.47	27.4	13.4	19.6
